# According to PubChem BioAssay AID258 (DTP/NCI, 2004):
# “And” between values parts separate entries of the source, which are not always exact repeats. Equal entries are not always repeated. Inconclusive results and toxic doses are left out.
# System: CD2F1 mice, L1210 leukemia sc, survival T/C
# Experiment: NCI In Vivo Anticancer Drug Screen. Data for tumor model L1210 Leukemia (subcutaneous) in CD2F1 (CDF1) mice
# Conditions: endpoint: median survival time, higher = longer survival
# In short: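 Read-out: survival or tumor size. Value = treated (T) / vehicle control (C). Transplantable tumor in mice.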
# [1] = dose: 3.75 mg/kg/injection, schedule: Q01DX Z (sc), vehicle: carboxymethylcellulose (CMC)
# [2] = dose: 7.5 mg/kg/injection, schedule: Q01DX Z (sc), vehicle: carboxymethylcellulose (CMC)
# [3] = dose: 15.0 mg/kg/injection, schedule: Q01DX Z (sc), vehicle: carboxymethylcellulose (CMC)
# [4] = dose: 30.0 mg/kg/injection, schedule: Q01DX Z (sc), vehicle: carboxymethylcellulose (CMC)
compound,measurement,setting,value
CC1CCC(NC(=O)N(CCCl)N=O)CC1 (stereo not given),T/C,"dose: 0.25 mg/kg/injection, schedule: Q01DX009 (ip), vehicle: saline + alcohol",96 % of control
same,T/C,"dose: 0.5 mg/kg/injection, schedule: Q01DX009 (ip), vehicle: saline + alcohol",112 % of control
same,T/C,"dose: 1.0 mg/kg/injection, schedule: Q01DX009 (ip), vehicle: saline + alcohol",122 % of control
same,T/C,"dose: 4.0 mg/kg/injection, schedule: Q01DX009 (ip), vehicle: saline + alcohol",153 % of control and 239 % of control
same,T/C,"dose: 4.0 mg/kg/injection, schedule: Q01DX009 (sc), vehicle: saline + alcohol",107 % of control
same,T/C,"dose: 5.3 mg/kg/injection, schedule: Q01DX009 (sc), vehicle: saline + alcohol",225 % of control
same,T/C,"dose: 8.0 mg/kg/injection, schedule: Q01DX009 (ip), vehicle: saline + alcohol",163 % of control and 267 % of control
same,T/C,"dose: 8.0 mg/kg/injection, schedule: Q01DX009 (sc), vehicle: saline + alcohol",120 % of control and 246 % of control
same,T/C,"dose: 10.7 mg/kg/injection, schedule: Q01DX009 (ip), vehicle: saline + alcohol",745 % of control
same,T/C,"dose: 12.0 mg/kg/injection, schedule: Q01DX009 (sc), vehicle: saline + alcohol",250 % of control
same,T/C,"dose: 16.0 mg/kg/injection, schedule: Q01DX009 (ip), vehicle: saline + alcohol",200 % of control and 230 % of control
same,T/C,"dose: 16.0 mg/kg/injection, schedule: Q01DX009 (sc), vehicle: saline + alcohol",198 % of control and 209 % of control
same,T/C,"dose: 21.4 mg/kg/injection, schedule: Q01DX009 (sc), vehicle: saline + alcohol",400 % of control
same,T/C,"dose: 24.0 mg/kg/injection, schedule: Q01DX009 (ip), vehicle: saline + alcohol",153 % of control
same,T/C,"dose: 24.0 mg/kg/injection, schedule: Q01DX009 (sc), vehicle: saline + alcohol",123 % of control
same,T/C,"dose: 32.0 mg/kg/injection, schedule: Q01DX009 (sc), vehicle: saline + alcohol",162 % of control and 203 % of control
same,T/C,"dose: 48.0 mg/kg/injection, schedule: Q01DX009 (ip), vehicle: saline + alcohol",90 % of control
same,T/C,"dose: 48.0 mg/kg/injection, schedule: Q01DX009 (sc), vehicle: saline + alcohol",189 % of control
same,T/C,"dose: 64.0 mg/kg/injection, schedule: Q01DX009 (ip), vehicle: saline + alcohol",150 % of control
same,T/C,"dose: 64.0 mg/kg/injection, schedule: Q01DX009 (sc), vehicle: saline + alcohol",122 % of control
same,T/C,"dose: 256.0 mg/kg/injection, schedule: Q01DX009 (sc), vehicle: saline + alcohol",120 % of control
N#[N+]c1cnc([O-])[nH]c1=O,T/C,"dose: 14.0 mg/kg/injection, schedule: Q01DX Z (sc), vehicle: methylcellulose (MC)",100 % of control
same,T/C,"dose: 23.0 mg/kg/injection, schedule: Q01DX Z (sc), vehicle: methylcellulose (MC)",100 % of control
same,T/C,"dose: 39.0 mg/kg/injection, schedule: Q01DX Z (sc), vehicle: methylcellulose (MC)",122 % of control
same,T/C,"dose: 39.0 mg/kg/injection, schedule: Q01DX Z (sc), vehicle: other",100 % of control
same,T/C,"dose: 65.0 mg/kg/injection, schedule: Q01DX Z (sc), vehicle: other",116 % of control
CCN(CC)c1ccc2cc3ccc(=[N+](CC)CC)cc-3oc2c1,T/C,"dose: 0.5 mg/kg/injection, schedule: Q01DX Z (sc), vehicle: methylcellulose (MC)",100 % of control
same,T/C,"dose: 1.0 mg/kg/injection, schedule: Q01DX Z (sc), vehicle: methylcellulose (MC)",100 % of control
same,T/C,"dose: 2.0 mg/kg/injection, schedule: Q01DX Z (sc), vehicle: methylcellulose (MC)",100 % of control
same,T/C,"dose: 4.0 mg/kg/injection, schedule: Q01DX Z (sc), vehicle: methylcellulose (MC)",100 % of control
same,T/C,"dose: 8.0 mg/kg/injection, schedule: Q01DX Z (sc), vehicle: methylcellulose (MC)",100 % of control
O=NN(CCCl)C(=O)NC1CC2CCC1C2 (stereo not given),T/C,[1],94 % of control
same,T/C,[2],94 % of control
same,T/C,[3],117 % of control
same,T/C,[4],288 % of control
same,T/C,"dose: 60.0 mg/kg/injection, schedule: Q01DX Z (sc), vehicle: carboxymethylcellulose (CMC)",200 % of control
O=NN(CCF)C(=O)NC1CCCCC1,T/C,"dose: 1.85 mg/kg/injection, schedule: Q01DX Z (sc), vehicle: carboxymethylcellulose (CMC)",100 % of control
same,T/C,[1],111 % of control
same,T/C,[2],376 % of control
same,T/C,[3],394 % of control
same,T/C,[4],211 % of control
Nc1nc(N)c2cc(CCc3ccc(C(=O)NC(CCC(=O)O)C(=O)O)cc3)ccc2n1 (stereo not given),T/C,"dose: 0.04 mg/kg/injection, schedule: Q01DX009 (ip), vehicle: Klucel (hydroxypropylcellulose) (HPC)",98 % of control
same,T/C,"dose: 0.08 mg/kg/injection, schedule: Q01DX009 (ip), vehicle: Klucel (hydroxypropylcellulose) (HPC)",102 % of control
same,T/C,"dose: 0.16 mg/kg/injection, schedule: Q01DX009 (ip), vehicle: Klucel (hydroxypropylcellulose) (HPC)",105 % of control
same,T/C,"dose: 0.63 mg/kg/injection, schedule: Q01DX009 (ip), vehicle: Klucel (hydroxypropylcellulose) (HPC)",89 % of control
CN(Cc1cnc2nc(N)nc(N)c2n1)c1c(Cl)cc(C(=O)NC(CCC(=O)O)C(=O)O)cc1Br (stereo not given),T/C,"dose: 17.0 mg/kg/injection, schedule: Q01DX Z (sc), vehicle: other",294 % of control and 318 % of control
same,T/C,"dose: 28.0 mg/kg/injection, schedule: Q01DX Z (sc), vehicle: other",356 % of control and 511 % of control
same,T/C,"dose: 46.0 mg/kg/injection, schedule: Q01DX Z (sc), vehicle: other",350 % of control
same,T/C,"dose: 47.0 mg/kg/injection, schedule: Q01DX Z (sc), vehicle: other",838 % of control
same,T/C,"dose: 47.1 mg/kg/injection, schedule: Q01DX Z (oral), vehicle: other",200 % of control
same,T/C,"dose: 76.0 mg/kg/injection, schedule: Q01DX Z (sc), vehicle: other",262 % of control
same,T/C,"dose: 78.0 mg/kg/injection, schedule: Q01DX Z (sc), vehicle: other",250 % of control
same,T/C,"dose: 78.1 mg/kg/injection, schedule: Q01DX Z (oral), vehicle: other",183 % of control
same,T/C,"dose: 126.0 mg/kg/injection, schedule: Q01DX Z (sc), vehicle: other",193 % of control
same,T/C,"dose: 130.0 mg/kg/injection, schedule: Q01DX Z (sc), vehicle: other",172 % of control
same,T/C,"dose: 130.1 mg/kg/injection, schedule: Q01DX Z (oral), vehicle: other",172 % of control
same,T/C,"dose: 216.0 mg/kg/injection, schedule: Q01DX Z (sc), vehicle: other",150 % of control
same,T/C,"dose: 216.1 mg/kg/injection, schedule: Q01DX Z (oral), vehicle: other",166 % of control
same,T/C,"dose: 360.0 mg/kg/injection, schedule: Q01DX Z (sc), vehicle: other",155 % of control
same,T/C,"dose: 360.1 mg/kg/injection, schedule: Q01DX Z (oral), vehicle: other",161 % of control
Nc1ncnc2c1ncn2C(C=O)OC(C=O)CO (stereo not given),T/C,"dose: 14.0 mg/kg/injection, schedule: Q01DX Z (sc), vehicle: carboxymethylcellulose (CMC)",100 % of control
same,T/C,"dose: 23.0 mg/kg/injection, schedule: Q01DX Z (sc), vehicle: carboxymethylcellulose (CMC)",105 % of control
same,T/C,"dose: 39.0 mg/kg/injection, schedule: Q01DX Z (sc), vehicle: carboxymethylcellulose (CMC)",100 % of control
same,T/C,"dose: 108.0 mg/kg/injection, schedule: Q01DX Z (sc), vehicle: carboxymethylcellulose (CMC)",111 % of control
same,T/C,"dose: 180.0 mg/kg/injection, schedule: Q01DX Z (sc), vehicle: carboxymethylcellulose (CMC)",100 % of control
